Earlier results in US20260021069A1, “ADVANTAGEOUS FLUOROB[…] THE TREATMENT OF MENTAL DISORDERS OR ENHANCEMENT” (TACTOGEN INC, priority 2023, published 2026).

Legend:
DAT and SERT [1] = settings: uptake inhibition IC50 based; literature value
DAT and SERT [2] = settings: release based; Rothman et al. 2012
[3] = after 75 or 125 mg MDMA; standard deviation of 1.3 hours; Vizeli & Liechti 2017
DAT and NET = settings: Rothman et al. 2001

Row | Structure (SMILES) | DAT/SERT ratio (1/IC50 at DAT divided by 1/IC50 at SERT) (DAT and SERT [1]) | DAT/SERT EC50 ratio (DAT and SERT [2]) | duration of acute therapeutic effects [3] [h] | DAT/NET EC50 ratio (DAT and NET)
1 | CCNC(C)Cc1ccc2c(c1)OCO2 (stereo not drawn) [MDEA, 3,4-methylenedioxy-N-ethylamphetamine] | 3.2 | 0.76 |  | 
2 | CNC(C)Cc1ccc2c(c1)OCO2 (stereo not drawn) [MDMA] | 0.08 |  | 4.2 | 
3 | C[C@H](N)Cc1ccccc1 [d-amphetamine] |  |  |  | 0.9
4 | CN[C@@H](C)Cc1ccccc1 [d-methamphetamine] |  |  |  | 0.5
